Target: T1, recombinant AKR1C3 (human aldo-keto reductase 1C3) (Homo sapiens, UniProt P42330)
T1 construct: recombinant enzyme
T1 sequence (P42330 1-323): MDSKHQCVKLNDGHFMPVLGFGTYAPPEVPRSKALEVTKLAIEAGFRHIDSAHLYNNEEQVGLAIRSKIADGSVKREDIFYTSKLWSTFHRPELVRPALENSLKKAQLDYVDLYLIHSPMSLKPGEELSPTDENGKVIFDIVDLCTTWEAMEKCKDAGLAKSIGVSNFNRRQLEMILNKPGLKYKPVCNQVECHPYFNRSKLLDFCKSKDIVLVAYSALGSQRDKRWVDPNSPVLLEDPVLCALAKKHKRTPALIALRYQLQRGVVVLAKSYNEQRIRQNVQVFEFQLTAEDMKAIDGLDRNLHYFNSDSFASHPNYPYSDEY
Assay: absorbance at […] nm, Michaelis-Menten fit
Assay type: biochemical
Details: 0.25 mM NAD(P)H, 10 mM Tris-Cl pH 7.0, 4% DMSO

Q: Which KM does the source give for CS(=O)(=O)OCCN(CCBr)c1c(C(=O)NCCO)cc([N+](=O)[O-])cc1[N+](=O)[O-] [PR-104A] here?
A: The KM was “kinetic parameters calculated for each (D)NBM using the following extinction coefficients: PR-104A”.
